Measurements published in patent US6620849B2, “Potassium channel inhibitors” (ICAFEN, Inc., priority 2000, dated 2003).
Like-named read-outs stand apart in the source and are kept apart here.

Target: T1, Kv1.5 potassium channel (Homo sapiens, UniProt P22460)
T1 construct: expressed in transfected cells
Experiment: Whole-cell patch clamp electrophysiological recording of Kv1.5 currents in CHO cells
Assay type: cell-based
Settings: CHO cells stably expressing Kv1.5, whole-cell voltage clamp, holding potential −80 mV, one depolarization every 10 seconds
Procedure: Electrophysiological recordings of potassium currents in Chinese hamster ovary cells stably expressing the gene construct for the Kv1.5 potassium channel subunit were performed using the whole cell configuration of the patch clamp technique (Hamill et al., Pflugers Archiv 391:85, 1981). Cell lines expressing Kv1.5 were prepared using standard techniques known to those skilled in the art. Cells were plated on glass coverslips at a density of 2×10^4 cells/coverslip and used within 24-48 hours. Solutions used for electrophysiological recordings were as follows. Extracellular bathing solutions typically contain (in mM) 132 NaCl, 5.4 KCl, 1.8 CaCl2, 0.8 MgCl2, 10 HEPES, 5 glucose at pH 7.3. Electrode pipette solutions (intracellular solution) for measuring Kv1.5 typically contain (in mM) 100 KF, 40 KCl, 5 NaCl, 2 MgCl2, 5 EGTA, 10 HEPES and 5 glucose at pH 7.4, 295 mOsm and has a resistance of about 1-2 MΩ. The coverslips were placed in a small chamber (volume ˜200 μl) on the mechanical stage of an inverted microscope and perfused (approximately 2 ml/min) with extracellular recording solution. Drug was applied using a series of narrow-bore glass capillary tubes (inner diameter ˜100 μm) positioned approximately 200 μm from the cell.
As soon as the current recording was stable, a compound representative of the present invention was superfused over the cell until steady-state block was observed. Using this technique, the effects of the compound on peak and steady-state current were determined at progressively increasing compound concentrations.
The testing results of selected compounds from Table 2 using this assay and the techniques described above are reported in Table 3 as the percent inhibition of Kv1.5 potassium channel currents at a single concentration of 0.1 μM.

[1] = read-out: Peak Current Inhibition at 0.1 μM (%)
[2] = read-out: Steady-state Current Inhibition at 0.1 μM (%)

T1 sequence (P22460 whole entry): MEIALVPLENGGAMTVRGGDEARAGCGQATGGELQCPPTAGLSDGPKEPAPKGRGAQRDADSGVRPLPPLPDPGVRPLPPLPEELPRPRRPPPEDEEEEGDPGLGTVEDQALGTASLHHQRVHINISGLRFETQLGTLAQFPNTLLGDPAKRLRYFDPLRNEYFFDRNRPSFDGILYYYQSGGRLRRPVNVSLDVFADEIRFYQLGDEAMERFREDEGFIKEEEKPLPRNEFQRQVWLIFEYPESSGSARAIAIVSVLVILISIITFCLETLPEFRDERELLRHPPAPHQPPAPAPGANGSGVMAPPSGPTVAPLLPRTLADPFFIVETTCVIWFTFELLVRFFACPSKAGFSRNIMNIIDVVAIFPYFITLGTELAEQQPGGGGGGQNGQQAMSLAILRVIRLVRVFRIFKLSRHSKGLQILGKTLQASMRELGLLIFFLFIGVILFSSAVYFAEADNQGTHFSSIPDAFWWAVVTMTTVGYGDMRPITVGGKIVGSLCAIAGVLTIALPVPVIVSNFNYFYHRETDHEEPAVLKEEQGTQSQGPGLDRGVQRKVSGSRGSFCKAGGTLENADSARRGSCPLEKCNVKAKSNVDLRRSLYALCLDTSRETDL

For `Cc1cccc(CN(C(=O)C2CC2c2ccccc2)c2ccc3c(c2)C(NS(=O)(=O)c2ccccc2)CCC3)n1` (stereo not shown) [Example 7], the inhibition at 0.1 µM [1] was 43% and the inhibition at 0.1 µM [2] was 68%.

Work on `Cc1ncc(CN(C(=O)C2CC2c2ccccc2)c2ccc3c(c2)C(NS(=O)(=O)c2ccc(F)cc2)CCC3)n1CC(C)C` (stereo not shown) [Example 5] yielded an inhibition at 0.1 µM [1] of 39% and an inhibition at 0.1 µM [2] of 50%.

For `Cn1ccnc1CN(C(=O)[C@@H]1C[C@H]1c1ccc(F)cc1)c1ccc2c(c1)[C@@H](NS(=O)(=O)c1cccc(F)c1)CCC2` [Example 30], the inhibition at 0.1 µM [1] was 80% and the inhibition at 0.1 µM [2] was 93%.

For `Cn1ccnc1CN(C(=O)[C@@H]1C[C@H]1c1ccc(F)cc1)c1ccc2c(c1)[C@@H](NS(=O)(=O)c1ccc(F)cc1)CCC2` [Example 31], the inhibition at 0.1 µM [1] was 70% and the inhibition at 0.1 µM [2] was 84%.

`Cc1cccc(CN(C(=O)C2CC2c2ccccc2)c2ccc3c(c2)C(NS(=O)(=O)c2ccc(F)cc2)CCC3)n1` (stereo not shown) [Example 10] showed an inhibition at 0.1 µM [1] of 24% and an inhibition at 0.1 µM [2] of 53%.

For `Cn1ccnc1CN(C(=O)[C@H]1C[C@@H]1c1ccc(Cl)cc1)c1ccc2c(c1)[C@@H](NS(=O)(=O)c1ccc(F)cc1)CCC2` [Example 25], the inhibition at 0.1 µM [1] was 35% and the inhibition at 0.1 µM [2] was 69%.

Compound `Cc1cccc(CN(C(=O)[C@@H]2C[C@H]2c2ccccc2)c2ccc3c(c2)[C@@H](NS(=O)(=O)c2ccc(F)cc2)CCC3)n1` [Example 13] has an inhibition at 0.1 µM [1] of 45% and an inhibition at 0.1 µM [2] of 82%.

`CCc1ccc(S(=O)(=O)N[C@H]2CCCc3ccc(N(Cc4nccn4C)C(=O)[C@@H]4C[C@H]4c4ccc(Cl)cc4)cc32)cc1` [Example 48] showed an inhibition at 0.1 µM [1] of 70% and an inhibition at 0.1 µM [2] of 95%.

`Cn1ccnc1CN(C(=O)[C@@H]1C[C@H]1c1ccccc1)c1ccc2c(c1)[C@@H](NS(=O)(=O)c1ccccc1)CCC2` [Example 6] showed an inhibition at 0.1 µM [1] of 72% and an inhibition at 0.1 µM [2] of 78%.

`Cn1ccnc1CN(C(=O)[C@@H]1C[C@H]1c1ccc(C(F)(F)F)cc1)c1ccc2c(c1)[C@@H](NS(=O)(=O)c1ccccc1F)CCC2` [Example 43] showed an inhibition at 0.1 µM [1] of 47% and an inhibition at 0.1 µM [2] of 72%.

For `Cn1ccnc1CN(C(=O)[C@@H]1C[C@H]1c1ccc(F)cc1)c1ccc2c(c1)[C@@H](NS(=O)(=O)c1ccc(F)c(Cl)c1)CCC2` [Example 32], the inhibition at 0.1 µM [1] was 70% and the inhibition at 0.1 µM [2] was 91%.

Compound `Cn1ccnc1CN(C(=O)[C@@H]1C[C@H]1c1ccc(Cl)cc1)c1ccc2c(c1)[C@@H](NS(=O)(=O)c1ccccc1)CCC2` [Example 44] has an inhibition at 0.1 µM [1] of 71% and an inhibition at 0.1 µM [2] of 92%.

With `Cc1cccc(CN(C(=O)[C@@H]2C[C@H]2c2ccccc2)c2ccc3c(c2)[C@@H](NS(=O)(=O)c2ccccc2)CCC3)n1` [Example 12] the inhibition at 0.1 µM [1] was 57% and the inhibition at 0.1 µM [2] was 96%.

`Cn1ccnc1CN(C(=O)[C@@H]1C[C@H]1c1ccc(F)cc1)c1ccc2c(c1)[C@@H](NS(=O)(=O)c1ccccc1F)CCC2` [Example 29] gave an inhibition at 0.1 µM [1] of 68% and an inhibition at 0.1 µM [2] of 78%.

With `Cn1ccnc1CN(C(=O)[C@@H]1C[C@H]1c1ccccc1)c1ccc2c(c1)[C@@H](NS(=O)(=O)c1ccc(Cl)cc1)CCC2` [Example 4] the inhibition at 0.1 µM [1] was 64% and the inhibition at 0.1 µM [2] was 76%.

Work on `Cc1cccc(CN(C(=O)[C@@H]2C[C@H]2c2ccccc2)c2ccc3c(c2)[C@@H](NS(=O)(=O)c2cccc(Cl)c2)CCC3)n1` [Example 14] yielded an inhibition at 0.1 µM [1] of 42% and an inhibition at 0.1 µM [2] of 81%.

For `Cc1cccc(CN(C(=O)[C@@H]2C[C@H]2c2ccc(C(F)(F)F)cc2)c2ccc3c(c2)[C@@H](NS(=O)(=O)c2ccccc2F)CCC3)n1` [Example 39], the inhibition at 0.1 µM [1] was 50% and the inhibition at 0.1 µM [2] was 69%.

Compound `Cc1cccc(CN(C(=O)[C@@H]2C[C@H]2c2ccccc2)c2ccc3c(c2)[C@@H](NS(=O)(=O)c2ccc(Cl)cc2)CCC3)n1` [Example 16] has an inhibition at 0.1 µM [1] of 42% and an inhibition at 0.1 µM [2] of 80%.

`Cc1cccc(CN(C(=O)C2CC2c2ccccc2)c2ccc3c(c2)C(NS(=O)(=O)c2ccccc2Cl)CCC3)n1` (stereo not shown) [Example 9] was tested, and the inhibition at 0.1 µM [1] was 60% and the inhibition at 0.1 µM [2] was 82%.

With `Cn1ccnc1CN(C(=O)[C@H]1C[C@@H]1c1ccc(Cl)cc1)c1ccc2c(c1)[C@H](NS(=O)(=O)c1ccccc1)CCC2` [Example 54] the inhibition at 0.1 µM [1] was 57% and the inhibition at 0.1 µM [2] was 82%.
